Data published in US8883807B2, “Piperidinone carboxamide indane CGRP receptor antagonists” (Merck Sharp & Dohme Corp., priority 2010, dated 2014).
pKi: −log10 of the molar value. Where a name gives a salt, the structure may show the parent alone. Where no end group is shown, it is not given here.

What was measured:
[1] = molecular target: T1, recombinant human CL receptor/RAMP1 (Homo sapiens, UniProt O60894+Q16602); assay: Recombinant Receptor Binding Assay (125I-hCGRP); conditions: exemplary compounds of the invention
T1 construct: expressed in transfected cells; membranes
T1 sequence (Q16602 23-461): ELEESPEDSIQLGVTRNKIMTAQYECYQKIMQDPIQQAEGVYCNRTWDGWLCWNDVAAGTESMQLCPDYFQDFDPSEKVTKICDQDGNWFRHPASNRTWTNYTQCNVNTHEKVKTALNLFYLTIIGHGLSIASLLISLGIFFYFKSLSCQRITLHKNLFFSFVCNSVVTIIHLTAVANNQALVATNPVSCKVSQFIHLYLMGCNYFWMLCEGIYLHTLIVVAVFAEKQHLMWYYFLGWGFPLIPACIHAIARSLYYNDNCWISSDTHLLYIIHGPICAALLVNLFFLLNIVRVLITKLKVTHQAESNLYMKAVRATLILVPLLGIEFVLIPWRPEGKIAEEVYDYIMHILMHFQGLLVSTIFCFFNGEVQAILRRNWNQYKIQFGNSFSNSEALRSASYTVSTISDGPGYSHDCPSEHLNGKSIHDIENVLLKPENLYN
T1 sequence (O60894 27-148): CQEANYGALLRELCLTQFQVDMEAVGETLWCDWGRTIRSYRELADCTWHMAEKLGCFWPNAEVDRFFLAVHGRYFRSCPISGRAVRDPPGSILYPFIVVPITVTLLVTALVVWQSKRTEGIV
Procedure: Recombinant Receptor: Human CL receptor (Genbank accession number L76380) was subcloned into the expression vector pIREShyg2 (BD Biosciences Clontech) as a 5′NheI and 3′ PmeI fragment. Human RAMP 1 (Genbank accession number AJ001014) was subcloned into the expression vector pIRESpuro2 (BD Biosciences Clontech) as a 5′NheI and 3′NotI fragment. HEK 293 cells (human embryonic kidney cells; ATCC #CRL-1573) were cultured in DMEM with 4.5 g/L glucose, 1 mM sodium pyruvate and 2 mM glutamine supplemented with 10% fetal bovine serum (FBS), 100 units/mL penicillin and 100 μg/mL streptomycin, and maintained at 37° C. and 95% humidity. Cells were subcultured by treatment with 0.25% trypsin with 0.1% EDTA in HBSS. Stable cell line generation was accomplished by co-transfecting 10 μg of DNA with 30 μg Lipofectamine 2000 (Invitrogen) in 75 cm^2 flasks. CL receptor and RAMP1 expression constructs were co-transfected in equal amounts. Twenty-four hours after transfection the cells were diluted and selective medium (growth medium+300 μg/mL hygromycin and 1 μg/mL puromycin) was added the following day. A clonal cell line was generated by single cell deposition utilizing a FACS Vantage SE (Becton Dickinson). Growth medium was adjusted to 150 μg/mL hygromycin and 0.5 μg/mL puromycin for cell propagation.
Recombinant Receptor Binding Assay: Cells expressing recombinant human CL receptor/RAMP1 were washed with PBS and harvested in harvest buffer containing 50 mM HEPES, 1 mM EDTA and Complete™ protease inhibitors (Roche). The cell suspension was disrupted with a laboratory homogenizer and centrifuged at 48,000 g to isolate membranes. The pellets were resuspended in harvest buffer plus 250 mM sucrose and stored at −70° C. For binding assays, 20 μg of membranes were incubated in 1 mL binding buffer (10 mM HEPES, pH 7.4, 5 mM MgCl2, and 0.2% BSA) for 3 h at room temperature containing […] ^125I-hCGRP (GE Healthcare) and antagonist. The assay was terminated by filtration through 96-well GFB glass fiber filter plates (PerkinElmer) that had been blocked with 0.05% polyethyleneimine. The filters were washed 3 times with ice-cold assay buffer (10 mM HEPES, pH 7.4, and 5 mM MgCl2). Scintillation fluid was added and the plates were counted on a Topcount (Packard). Non-specific binding was determined and the data analysis was carried out with the apparent dissociation constant (Ki) determined by using a non-linear least squares fitting the bound CPM data to the equation below:
[formula] Where Y is observed CPM bound, Ymax is total bound counts, Ymin is non specific bound counts, (Ymax−Ymin) is specific bound counts, % Imax is the maximum percent inhibition, % I min is the minimum percent inhibition, radiolabel is the probe, and the Kd is the apparent dissociation constant for the radioligand for the receptor as determined by hot saturation experiments.

[2] = tested on: acute attacks of migraine; conditions: clinical trials; cited from earlier work
middle meningeal artery = conditions: rats, electrical stimulation of the dura mater, prior administration; cited from earlier work
facial blood flow [3] = conditions: rat, trigeminal ganglion stimulation; cited from earlier work
[4] = tested on: headache induced by CGRP infusion; conditions: control group; cited from earlier work
facial blood flow [5] = conditions: marmoset, electrical stimulation of the trigeminal ganglion; cited from earlier work

pKi [1] | Compound | other results
9.89 | C[C@@H]1[C@H](c2ccccc2)C[C@H](NC(=O)c2ccc3c(c2)C[C@@]2(C3)C(=O)Nc3ncc(C#N)cc32)C(=O)N1CC(F)(F)F [Example 16] | –
10.68 | C[C@@H]1[C@H](c2c(F)c(F)cc(F)c2F)C[C@H](NC(=O)c2ccc3c(c2)C[C@@]2(C3)C(=O)Nc3ncncc32)C(=O)N1CC(F)(F)F [Example 20] | –
9.77 | C[C@@H]1[C@H](c2cccc(Cl)c2)C[C@H](NC(=O)c2ccc3c(c2)C[C@@]2(C3)C(=O)Nc3ncccc32)C(=O)N1CC(F)(F)F [Example 2, (2R)-N-[(3S,5S,6R)-5-(3-Chlorophenyl)-6-methyl-2-oxo-1-(2,2,2-trifluoroethyl)piperidin-3 yl]-2′-oxo-1,1′,2′,3-tetrahydrospiro[indene-2,3′-pyrrolo[2,3-b]pyridine]-5-carboxamide] | –
10.10 | C[C@@H]1[C@H](c2ccccc2)C[C@H](NC(=O)c2ccc3c(c2)C[C@@]2(C3)C(=O)Nc3ncccc32)C(=O)N1CC(F)(F)F [Example 1, (2R)-N-[(3S,5S,6R)-6-Methyl-2-oxo-5-phenyl-1-(2,2,2-trifluoroethyl)piperidin-3-yl]-2′-oxo-1,1′,2′,3-tetrahydrospiro[indene-2,3′-pyrrolo[2,3-b]pyridine]-5-carboxamide] | –
9.62 | O=C(N[C@H]1C[C@@H](c2c(Cl)cccc2Cl)CN(CC(F)(F)F)C1=O)c1ccc2c(c1)C[C@@]1(C2)C(=O)Nc2ncccc21 [Example 9] | –
10.49 | CC(C)CN1C[C@H](c2cccc(F)c2F)C[C@H](NC(=O)c2ccc3c(c2)C[C@@]2(C3)C(=O)Nc3ncccc32)C1=O [Example 14] | –
– | O=C(N[C@@H]1CC[C@@H](c2cccc(F)c2F)CN(CC(F)(F)F)C1=O)N1CCC(n2c(=O)[nH]c3ncccc32)CC1 [telcagepant] | effectiveness in treating acute attacks of migraine [2]: antimigraine effectiveness
10.41 | C[C@@H]1[C@H](c2cc(F)cc(F)c2F)C[C@H](NC(=O)c2ccc3c(c2)C[C@@]2(C3)C(=O)Nc3ncccc32)C(=O)N1CC(F)(F)F [Example 3, (2R)-N-1-[(3S,5S,6R)-6-Methyl-2-oxo-1-(2,2,2-trifluoroethyl)-5-(2,3,5-trifluorophenyl)piperidin-3-yl]-2′-oxo-1,1′,2′,3-tetrahydrospiro[indene-2,3′-pyrrolo[2,3-b]pyridine]-5-carboxamide hydrochloride] | –
10.21 | O=C(N[C@H]1C[C@@H](c2cccc(F)c2F)CN(CC(F)(F)F)C1=O)c1ccc2c(c1)C[C@@]1(C2)C(=O)Nc2ncccc21 [Example 5] | –
– | CGRP(8-37) (VTHRLAGLLSRSGGVVKNNFVPTNVGSKAF; ends and bridges not checked; UniProt P06881 90-119, looked up, fragment) [a peptide CGRP receptor antagonist] | effect on increase in diameter of the middle meningeal artery (middle meningeal artery): blocked; effect on increased facial blood flow (facial blood flow [3]): inhibited
9.74 | O=C(N[C@H]1C[C@@H](c2cc(F)cc(F)c2)CN(CC(F)(F)F)C1=O)c1ccc2c(c1)C[C@@]1(C2)C(=O)Nc2ncccc21 [Example 4] | –
– | NCCCC[C@H](NC(=O)[C@@H](Cc1cc(Br)c(O)c(Br)c1)NC(=O)N1CCC(N2Cc3ccccc3NC2=O)CC1)C(=O)N1CCN(c2ccncc2)CC1 [BIBN4096BS] | effectiveness in treating acute attacks of migraine [2]: effective in treating acute attacks of migraine; prevention of headache induced by CGRP infusion [4]: able to prevent headache induced by CGRP infusion; effect on increase in facial blood flow (facial blood flow [5]): blocked
10.60 | C[C@@H]1[C@H](c2c(F)ccc(F)c2F)C[C@H](NC(=O)c2ccc3c(c2)C[C@@]2(C3)C(=O)Nc3ncccc32)C(=O)N1CC(F)(F)F [Example 12] | –
